The source made the active and inactive calls. The rule behind the calls is not given here.
What was measured:
Rattus norvegicus [1] = experiment: Hypoglycemic effect in Wistar rat model of streptozotocin-induced type-2 diabetes mellitus assessed as reduction in blood glucose level at 5 mg/kg, ig after 7 hrs; assay type: functional, organism-based
[2] = Antioxidant activity assessed as DPPH radical scavenging activity; assay type: physicochemical
[3] = Antioxidant activity assessed as AAPH radical scavenging activity by measuring Trolox equivalents after 90 mins by fluorescein probe based ORAC assay; assay type: physicochemical; conditions: 1.5 h
Rattus norvegicus [4] = experiment: Hypoglycemic effect in Wistar rat model of streptozotocin-induced type-2 diabetes mellitus assessed as reduction in blood glucose level at 50 mg/kg, ig after 7 hrs; assay type: functional; conditions: po
[5] = Antioxidant activity assessed as DPPH radical scavenging activity at 20 mg/ml; assay type: physicochemical
[6] = Antioxidant activity assessed as DPPH radical scavenging activity at […]; assay type: physicochemical
[7] = Antioxidant activity assessed as DPPH radical scavenging activity at 20 µg/ml; assay type: physicochemical

Row | SMILES | EC50 [2] [mM] | Activity [3] [g⁻¹] | also measured
1 | COc1ccc(Cl)cc1C(=O)NCCc1ccc(S(=O)(=O)NC(=O)NC2CCCCC2)cc1 | – | – | Activity (Rattus norvegicus [1]): Active
2 | COc1cc(/C=N/NC(=O)c2nn(-c3ccc(Cl)cc3Cl)c(-c3ccc(C(F)(F)F)cc3)c2C)ccc1O | 4.24 | 401 | inhibition in vivo at 50 mg/kg (Rattus norvegicus [4]): 35.3%
3 | COc1cc(C(=O)O)ccc1O [VANILLIC ACID] | 65.8 | 2979 | –
4 | COc1cc(/C=N/NC(=O)c2nn(-c3ccnc4cc(Cl)ccc34)c(-c3ccc(F)cc3)c2C)ccc1O | 6.45 | – | –
5 | Cc1c(C(=O)O)nn(-c2ccc(Cl)cc2Cl)c1-c1ccc(Cl)cc1 | – | – | inhibition (INH) [5]: 17%
6 | COc1cc(/C=N/NC(=O)c2nn(-c3ccnc4cc(Cl)ccc34)c(-c3ccc(Cl)cc3)c2C)ccc1O | 4.59 | – | –
7 | COc1cc(/C=N/NC(=O)c2nn(-c3ccc(F)c(Cl)c3)c(-c3ccc(F)cc3)c2C)ccc1O | 6.92 | 525 | –
8 | COc1cc(C=O)ccc1O [VANILLIN] | – | – | inhibition (INH) [6]: 75%; inhibition (INH) [7]: 7%
9 | COc1cc(/C=N/NC(=O)c2nn(-c3ccc(F)c(Cl)c3)c(-c3ccc(Cl)cc3)c2C)ccc1O | 3.56 | 882 | –

More lines, in order of falling EC50 [2], values ahead:

Row | EC50 [2] [mM] | Activity [3] [g⁻¹] | SMILES | also measured
10 | 3.55 | 634 | COc1cc(/C=N/NC(=O)c2nn(-c3ccc(Cl)cc3Cl)c(-c3ccc(Cl)cc3)c2C)ccc1O | inhibition in vivo at 50 mg/kg (Rattus norvegicus [4]): 64.9%
11 | 3.54 | 891 | COc1cc(/C=N/NC(=O)c2nn(-c3ccc(F)cc3F)c(-c3ccc(F)cc3)c2C)ccc1O | –
12 | 2.99 | 1076 | COc1cc(/C=N/NC(=O)c2nn(-c3ccc(Cl)cc3Cl)c(-c3ccccc3)c2C)ccc1O | inhibition in vivo at 50 mg/kg (Rattus norvegicus [4]): 26.6%
13 | 2.91 | – | COc1cc(/C=N/NC(=O)c2nn(-c3ccc(C(F)(F)F)cc3)c(-c3ccc(Br)cc3)c2C)ccc1O | –
14 | 2.9 | 993 | COc1cc(/C=N/NC(=O)c2nn(-c3ccc(F)cc3F)c(-c3ccc(C(F)(F)F)cc3)c2C)ccc1O | –
15 | 2.6 | 432 | COc1cc(/C=N/NC(=O)c2nn(-c3ccc(Cl)c(Cl)c3)c(-c3ccc(Cl)cc3)c2C)ccc1O | inhibition in vivo at 50 mg/kg (Rattus norvegicus [4]): 33.3%
16 | 2.46 | 611 | COc1cc(/C=N/NC(=O)c2nn(-c3ccccc3)c(-c3ccccc3)c2C)ccc1O | –
17 | 2.34 | 867 | COc1cc(/C=N/NC(=O)c2nn(-c3ccc(C(F)(F)F)cc3)c(-c3ccc(Cl)cc3)c2C)ccc1O | –
18 | 2.07 | – | O=C1O[C@H]([C@@H](O)CO)C(O)=C1O [ASCORBIC ACID] | –

Source: ChEMBL document CHEMBL3588847, “1,5-Diarylpyrazole and vanillin hybrids: Synthesis, biological activity and DFT studies” (Eur J Med Chem, 2015)
